Test results published in the RepoRT retention time repository.

Experiment: Waters ACQUITY UPLC BEH C18, 100 × 2.1 mm, 1.7 µm, 40 °C, 0.3 to 0.4 mL/min, estimated dead time 0.63 min; A: water + 0.1% formic acid; B: methanol + 0.1% formic acid; gradient (min/%B) 0/0.5 0.1/0.5 10/80 10.1/99.5 12/99.5
Details: stereoisomer not certain

`O=c1cc(-c2ccc(O)c(O)c2)oc2cc(O)c(C3OC(CO)C(O)C(O)C3OC3OC(CO)C(O)C(O)C3O)c(O)c12` (stereo not drawn) and `O=c1cc(-c2ccc(O)cc2)oc2cc(O)c(C3OCC(O)C(O)C3OC3OC(CO)C(O)C(O)C3O)c(O)c12` (stereo not drawn) are within 1.5-fold of each other in LC retention time: 3.44 min for the first, 4.21 min for the second.

`CC=C1CC(C)C(O)(CO)C(=O)OCC2=CCN3CCC(OC1=O)C23` (stereo not drawn) and `COC(=O)C1=C2Nc3ccccc3C23CCN2CCC1C(C(C)OC)C23` (stereo not drawn) are within 1.5-fold of each other in LC retention time: 3.23 min for the first, 4.55 min for the second.

First: OCC1OC(OC2C(Oc3cc4c(O)cc(O)cc4[o+]c3-c3ccc(O)c(O)c3)OC(CO)C(O)C2O)C(O)C(O)C1O (stereo not drawn)
Second: COc1ccc(CCC(=O)c2c(O)cc(OC3OC(CO)C(O)C(O)C3OC3OC(C)C(O)C(O)C3O)cc2O)cc1O (stereo not drawn)
The LC retention time of the first is 1.8-fold lower: 2.77 min for the first, 5.07 min for the second.

`CC(C)CC(N)C(=O)NC(C(=O)O)C(C)C` (stereo not drawn) and `CC(C)CC(N)C(=O)NC(CC(C)C)C(=O)O` (stereo not drawn) are within 1.5-fold of each other in LC retention time: 2.66 min for the first, 3.29 min for the second.

`COc1c(CC=C(C)C)c(O)cc2oc(-c3ccc(O)cc3O)cc12` and `COc1cc(-c2oc3cc(O)cc(O)c3c(=O)c2O)ccc1O` are within 1.5-fold of each other in LC retention time: 8.35 min for the first, 6.14 min for the second.

`c1ccc2c(c1)CN1CCCC1=N2` and `O=C(O)C1C(O)CCC2CN3CCc4c([nH]c5ccccc45)C3CC21` (stereo not drawn) are within 1.5-fold of each other in LC retention time: 2.8 min for the first, 3.82 min for the second.

`CC(C)=CCc1cc(-c2coc3c(C(C=C(C)C)c4cc(-c5coc6cc(O)cc(O)c6c5=O)ccc4O)c(O)cc(O)c3c2=O)ccc1O` (stereo not drawn) and `COc1ccc(-c2cc(=O)c3c(O)cc(O)cc3o2)cc1-c1c(O)cc(O)c2c(=O)cc(-c3ccc(O)cc3)oc12` are within 1.5-fold of each other in LC retention time: 8.22 min for the first, 6.07 min for the second.

Going from `CC(C)=CCCC(C)(OC1OC(COC2OCC(O)C(O)C2O)C(O)C(O)C1O)C1CCC2(C)C1C(O)CC1C3(C)CCC(O)C(C)(C)C3C(O)CC12C` (stereo not drawn) to `CC(C)=CCC=C(C)C1CCC2(C)C1C(O)CC1C3(C)CCC(OC4OC(CO)C(O)C(O)C4OC4OC(CO)C(O)C(O)C4O)C(C)(C)C3CCC12C` (stereo not drawn), the LC retention time rises from 6.11 min to 9.63 min (1.6-fold).

Going from `CS(=O)CCCCCCCCC(=O)O` (stereo not drawn) to `CS(=O)CCCCCCCCC(N)C(=O)O` (stereo not drawn), the LC retention time falls from 4.43 min to 2.74 min (1.6-fold).

`CC1(C)CCC2(C(=O)O)CCC3(C)C(=CCC4C5(C)CCC(OC6OC(C(=O)O)C(O)C(OC7OC(CO)C(O)C(O)C7O)C6O)C(C)(CO)C5CCC43C)C2C1` (stereo not drawn) and `CC1OC(OC2CC(C)(C)CC3C4=CCC5C6(C)CCC(OC7OC(C(=O)O)C(O)C(O)C7OC7OC(CO)C(O)C(O)C7OC7OCC(O)C(O)C7O)C(C)(CO)C6CCC5(C)C4(C)CCC23C)C(O)C(O)C1O` (stereo not drawn) are within 1.5-fold of each other in LC retention time: 7.55 min for the first, 5.56 min for the second.

`C=CC1C(OC2OC(CO)C(O)C(O)C2O)OC=C(C(=O)OC)C1CC=O` (stereo not drawn) and `C=CC1C(OC2OC(CO)C(O)C(O)C2O)OC(O)=C2C(=O)N3CCc4c([nH]c5ccccc45)C3=CC21` (stereo not drawn) are within 1.5-fold of each other in LC retention time: 3.84 min for the first, 5.07 min for the second.

`CC(CCC1(O)OC2CC3C4CCC5(O)CC(OC6OC(CO)C(O)C(O)C6O)C(O)CC5(C)C4CCC3(C)C2C1C)COC1OC(CO)C(O)C(O)C1O` (stereo not drawn) and `CC(CCC1(O)OC2CC3C4CC=C5CC(O)CC(OC6OCC(O)C(O)C6OC6OC(C)C(O)C(O)C6O)C5(C)C4CCC3(C)C2C1C)COC1OC(CO)C(O)C(O)C1O` (stereo not drawn) are within 1.5-fold of each other in LC retention time: 4.69 min for the first, 4.48 min for the second.

`CC1CCC2(OC1O)OC1CC3C4CC=C5CC(OC6OC(CO)C(OC7OC(C)C(O)C(O)C7O)C(O)C6OC6OC(C)C(O)C(O)C6O)CCC5(C)C4CC(O)C3(C)C1C2C` (stereo not drawn) and `CC1CCC2C(C)C3C(CC4C5CC=C6CC(OC7OC(CO)C(O)C(OC8OC(CO)C(O)C(O)C8O)C7OC7OC(C)C(O)C(O)C7O)CCC6(C)C5CCC43C)N2C1` (stereo not drawn) are within 1.5-fold of each other in LC retention time: 5.61 min for the first, 4.95 min for the second.

`COc1cc(O)c2c(c1)OC(c1ccc(O)c(-c3c(O)cc(O)c4c(=O)cc(-c5ccc(O)cc5)oc34)c1)CC2=O` (stereo not drawn) and `O=C1CC(c2ccc(O)c(O)c2)Oc2cc(O)cc(O)c21` (stereo not drawn) are within 1.5-fold of each other in LC retention time: 5.58 min for the first, 5.35 min for the second.

Compared with `O=C(O)CCCCCCCC(=O)O`, `CCCCCC=CC=CC(O)CCCCCCCC(=O)O` (stereo not drawn) is 2-fold higher in LC retention time: 4.78 min for the first, 9.79 min for the second.

`COc1cc(C=CC(=O)OC2C(OC3C(Oc4c(-c5ccc(O)cc5)oc5cc(OC6OC(CO)C(OC7OC(CO)C(O)C(O)C7O)C(O)C6O)cc(O)c5c4=O)OC(CO)C(O)C3O)OC(CO)C(O)C2O)ccc1O` (stereo not drawn) and `CC1OC(Oc2cc(O)c3c(=O)c(OC4OC(COC5OC(CO)C(O)C(O)C5O)C(O)C(O)C4O)c(-c4ccc(O)cc4)oc3c2)C(O)C(O)C1O` (stereo not drawn) are within 1.5-fold of each other in LC retention time: 4.01 min for the first, 3.62 min for the second.

Compared with `COc1cc2c(=O)c(-c3ccc(O)cc3)coc2cc1O`, `O=c1c(O)c(-c2ccc(O)cc2)oc2ccccc12` is 1.6-fold higher in LC retention time: 5.3 min for the first, 8.56 min for the second.

`O=C1CC(c2ccccc2)Oc2cc(O)cc(O)c21` (stereo not drawn) and `CC(C)=CCc1c(O)cc2c(c1O)C(=O)CC(c1ccccc1)O2` (stereo not drawn) are within 1.5-fold of each other in LC retention time: 7.47 min for the first, 7.58 min for the second.

`COc1cc(-c2cc(=O)c3c(O)cc(OC4OC(CO)C(O)C(O)C4O)cc3o2)cc(OC)c1O` (stereo not drawn) and `COc1cc(-c2cc(=O)c3c(O)c(C4OC(CO)C(O)C(O)C4O)c(OC)cc3o2)ccc1O` (stereo not drawn) are within 1.5-fold of each other in LC retention time: 4.57 min for the first, 4.21 min for the second.

`COc1cc(C=O)ccc1OC(C)=O` and `COc1cc(C=CC=O)ccc1O` are within 1.5-fold of each other in LC retention time: 5.59 min for the first, 4.76 min for the second.

`CC1(C)CC2C3=CCC4C5(C)CCC(OC6OC(C(=O)O)C(O)C(O)C6OC6OC(CO)C(O)C(O)C6OC6OC(CO)C(O)C(O)C6O)C(C)(CO)C5CCC4(C)C3(C)CCC2(C)CC1OC1OCC(O)C(O)C1O` (stereo not drawn) and `CC1OC(OC2C(OC3CCC4(C)C(=CCC5C4CCC4(C)C5CC5OC6(CCC(COC(=O)CC(C)(O)CC(=O)O)CO6)C(C)C54)C3)OC(CO)C(O)C2O)C(O)C(O)C1O` (stereo not drawn) are within 1.5-fold of each other in LC retention time: 5.5 min for the first, 7.38 min for the second.

First: C=C(C)C1CNC(C(=O)O)C1CC(=O)O (stereo not drawn)
Second: CC(=O)NC(CC(C)C)C(=O)O (stereo not drawn)
The LC retention time of the first is 1.6-fold lower: 2.44 min for the first, 3.81 min for the second.

`O=c1oc2cc(OC3OC(CO)C(O)C(O)C3O)ccc2c2oc3cc(O)ccc3c12` (stereo not drawn) and `O=c1cc(-c2ccc(OC3OC(CO)C(O)C(O)C3O)c(O)c2)oc2cc(O)cc(O)c12` (stereo not drawn) are within 1.5-fold of each other in LC retention time: 4.38 min for the first, 4.45 min for the second.

Going from `CCC(C)C(NCC1(O)OC(CO)C(O)C1O)C(=O)O` (stereo not drawn) to `CC12CC3(O)OC(O1)C1(COC(=O)c4ccccc4)C3CC21OC1OC(CO)C(O)C(O)C1O` (stereo not drawn), the LC retention time rises from 1.98 min to 3.78 min (1.9-fold).

Compared with `C=CCNC(=O)C=Cc1ccc(O)c(OC)c1`, `C=CCc1ccc(O)c(-c2cc(CC=C)ccc2O)c1` is 3.2-fold higher in LC retention time: 2.86 min for the first, 9.21 min for the second.

Compared with `COc1ccc2cc1Oc1ccc(cc1)CC1=NCCc3cc(OC)c(cc31)Oc1c(OC)c(OC)c(OC)c3c1C(C2)N(C)CC3` (stereo not drawn), `COc1c2c(cc3c(-c4ccc5c(c4)OCO5)c4c(cc13)C(=O)OC4)OCO2` is 2.1-fold higher in LC retention time: 4.25 min for the first, 8.93 min for the second.

Compared with `CC1(C)C=CC2(C)CCC3(C)C(=CCC4C5(C)CCC(O)C(C)(CO)C5CCC43C)C2C1` (stereo not drawn), `CCN1CC2(C)CCC(O)C34C5CC6C(OC)CC(O)(C(CC23)C14)C5C6O` (stereo not drawn) is 3.6-fold lower in LC retention time: 10.4 min for the first, 2.89 min for the second.

First: O=C(C=CC=Cc1ccc2c(c1)OCO2)N1CCCCC1
Second: O=C(C=Cc1ccc(O)cc1)OC1CC(O)(C(=O)O)CC(O)C1O (stereo not drawn)
The LC retention time of the first is 2.5-fold higher: 7.84 min for the first, 3.08 min for the second.

Compared with `COC(=O)C1CC23CCC[N+]4([O-])CCC5(c6ccccc6NC15CC2)C34` (stereo not drawn), `CN1CCC23c4ccccc4NC1C21CCN(C)C3Nc2ccccc21` is 1.6-fold lower in LC retention time: 4.18 min for the first, 2.57 min for the second.

Compared with `CC(C)CC(NC(=O)C(N)CO)C(=O)O` (stereo not drawn), `O=C(O)CC(=O)OCC1OC(Oc2cc(O)c3c(=O)cc(-c4ccc(O)c(O)c4)oc3c2)C(O)C(O)C1O` (stereo not drawn) is 1.9-fold higher in LC retention time: 2.38 min for the first, 4.59 min for the second.

Going from `O=C(O)CC(=O)OCC1OC(Oc2c(-c3ccc(O)cc3)oc3cc(OC4OC(CO)C(O)C(O)C4O)cc(O)c3c2=O)C(O)C(O)C1O` (stereo not drawn) to `COc1ccc(-c2oc3c(CC=C(C)C)c(OC4OC(CO)C(O)C(O)C4O)cc(O)c3c(=O)c2OC2OC(C)C(O)C(O)C2O)cc1` (stereo not drawn), the LC retention time rises from 3.36 min to 5.43 min (1.6-fold).

`CCC12C=CCN3CCc4c(n(c5ccccc45)C(O)(C(=O)OC)C1)C32` (stereo not drawn) and `O=c1cc[nH]c2ccccc12` are within 1.5-fold of each other in LC retention time: 4.26 min for the first, 2.93 min for the second.

`O=c1cc(-c2ccc(O)c(O)c2)oc2c(C3OC(CO)C(O)C(O)C3O)c(O)c(C3OCC(O)C(O)C3O)c(O)c12` (stereo not drawn) and `O=c1c(O)c(-c2ccc(O)c(O)c2)oc2cc(OC3OC(CO)C(O)C(O)C3O)c(O)c(O)c12` (stereo not drawn) are within 1.5-fold of each other in LC retention time: 3.19 min for the first, 3.72 min for the second.

`O=C1c2c(O)cc(O)cc2OC(c2ccc(O)c(O)c2)C1O` (stereo not drawn) and `O=C1CC(c2ccc(O)c(O)c2)Oc2cc(OC3OC(CO)C(O)C(O)C3O)cc(O)c21` (stereo not drawn) are within 1.5-fold of each other in LC retention time: 4.27 min for the first, 4.09 min for the second.

`O=c1cc2oc(-c3ccc([O-])c(O)c3)c(OC3OC(CO)C(O)C(O)C3OC3OCC(O)C(O)C3O)cc-2c(O)c1` (stereo not drawn) and `O=C1CC(c2ccc(O)c(O)c2)Oc2c1ccc(OC1OC(CO)C(O)C(O)C1O)c2O` (stereo not drawn) are within 1.5-fold of each other in LC retention time: 2.88 min for the first, 3.47 min for the second.

Compared with `CCC=CCC=CCC=CCCCCCCCC(=O)OCC(O)COP(=O)([O-])OCC[N+](C)(C)C` (stereo not drawn), `O=C(CCc1ccc(O)c(O)c1)NCCCCNCCCNC(=O)CCc1ccc(O)c(O)c1` is 2.8-fold lower in LC retention time: 8.93 min for the first, 3.14 min for the second.

Going from `Oc1cc(O)c2c(c1)OC(c1ccc(O)c(O)c1)C(O)C2c1c(O)cc(O)c2c1OC(c1ccc(O)c(O)c1)C(O)C2c1c(O)cc(O)c2c1OC(c1ccc(O)c(O)c1)C(O)C2` (stereo not drawn) to `COc1ccc(C2CC(=O)c3c(O)cc(OC4OC(COC5OC(C)C(O)C(O)C5O)C(O)C(O)C4O)cc3O2)cc1` (stereo not drawn), the LC retention time rises from 3.46 min to 5.33 min (1.5-fold).

`CCN1CC2(CO)CCC(OC)C34C5CC6C(OC)CC(O)(C5C6OC)C(O)(C(OC)C23)C14` (stereo not drawn) and `COc1cc(-c2oc3cc(OC4OC(C)C(O)C(O)C4O)cc(O)c3c(=O)c2O)ccc1O` (stereo not drawn) are within 1.5-fold of each other in LC retention time: 3.67 min for the first, 3.72 min for the second.

Compared with `OCC1OC(Oc2ccc(O)cc2)C(O)C(O)C1O` (stereo not drawn), `CC(=O)OCC1OC(Oc2ccc3c(=O)c(-c4ccc(O)cc4)coc3c2)C(O)C(O)C1O` (stereo not drawn) is 2.4-fold higher in LC retention time: 1.88 min for the first, 4.57 min for the second.
